In patent US20050272688A1, “Combined treatment with gemcitabine and an epidermal growth factor receptor kinase inhibitor” (priority 2004, published 2005):
Several values for one entry are separate records, joined by “and”; a condition that tells them apart may be missing. Equal entries are not always repeated. Where two headings read alike, the source gives them in different places.

Assays:
[1] = Single-dose pharmacokinetics of erlotinib in non-tumor bearing mice; assay type: in vivo, female nu/nu athymic mice
Method: (§1) For single-dose pharmacokinetics (PK), blood samples from three mice per time point were collected by cardiac puncture at 5, 15, 30, 60 minutes and 2, 4, 8, 16, 24 hours post-dose. For chronically treated animals, blood samples from two or three mice per time point were collected via the retro-orbital sinus at 1 and 6 hours. Collection tubes contained ethylene diamine tetra-acetic acid (EDTA) as anticoagulant. Samples were stored at −70° C. […] PK parameters were estimated by non-compartmental analysis of the composite data, using the PK evaluation programme WinNonlin PRO® version 3.1 (Pharsight Inc).
The doses refer to the hydrochloride salt with an active drug (free base) content of 91.5%. […] Three animals per time point were evaluated for PK data (FIG. 4).

in vivo = conditions: for MTD at 14 days: female, mouse, in vivo
Method: FIG. 6: Maximum tolerated dose assessment in non-tumour bearing athymic nude mice treated for 14 days (n=5).
Female, athymic, nu/nu-nuBR nude mice (Charles River Labs, Wilmington, USA) of around 10-12 weeks and weighing 23-25 g were used. The health of the mice was assessed daily by observation and analysis of blood samples taken from sentinel animals on the shared shelf racks. All animals were allowed to acclimatise and recover from shipping-related stress for 1 week.

NSCLC xenograft tumor = assay: Immunohistochemistry of xenograft tumors (Ki-67, TUNEL apoptosis, CD31 microvascular density); assay type: in vivo, athymic nude mice
Method: Sections for immunohistochemistry were cut at 5μ.
To block non-specific tissue-binding sites, sections were blocked by 10% normal serum from the species in which the secondary antibody was raised. Sections were incubated for 20 minutes at room temperature in serum prepared in Ultra-V (Lab Vision).

[2] = Necropsy, haematology, clinical chemistry and histology of treated mice; assay type: in vivo, athymic nude mice
Source text: At necropsy, skin samples were fixed in 10% buffered formalin, embedded in paraffin, sectioned at 5 μand stained with haematoxylin and eosin.
Five mice per treatment from all remaining groups were given a full necropsy at the end of the study. Whole blood was also collected from these mice for haematology and clinical chemistry.

A549 NSCLC xenograft = assay type: in vivo
Method: Mice were implanted with A549 NSCLC cells. […] Tumor size was measured 3 times per week. Values are means, n=10.
(§2) H460a cells (provided by Dr Jack Roth, Md., Anderson) were grown in Dulbecco's Modified Eagle Media (DMEM) supplemented with 10% Foetal Bovine Serum (FBS). A549 cells (American Type Culture Collection [Manassas, Va.] were grown in Roswell Park Memorial Institute medium (RPMI) 1640+10% FBS. The cell concentrations for implant were 1×10^7 cells/0.2 mL for H460a and 7.5×10^6 cells/0.2 mL for A549.
(§3) Cells were suspended in phosphate-buffered saline, and implanted subcutaneously in the right flank of each mouse. Once palpable tumours were established, animals were randomised so that all groups had similar starting mean tumour volumes of 100-150 mm^3. Tumour measurements and mouse weights were taken three times per week. Animals were individually monitored throughout the experiment.
(§4) All groups were treated daily for 3 weeks.
(§5) Gemcitabine was given intraperitoneally (i.p.) using a 3 mL syringe and 26-gauge needle. All groups were treated every 3 days for 3 weeks (a total of six injections).
(§6) Weight loss was calculated as percent change in mean group body weight, using the formula: ((W−W0)/W0)×100 • where ‘W’ represents mean body weight of the treated group at a particular day, and ‘W0’ represents mean body weight of the same group at start of treatment. Maximum weight loss was also calculated using the above formula, giving the maximum percentage of body weight lost at any time in the entire experiment for a particular group. Treatment efficacy was assessed by tumor growth inhibition. Tumour volumes of treated groups were given as percentages of tumor volumes of the control groups (% T/C), using the formula: 100×((T−T0)/(C−C0)) • where ‘T’ represents mean tumor volume of a treated group on a specific day during the experiment, ‘T0’ represented mean tumor volume of the same group on the first day of treatment, C represents mean tumor volume of a control group on a particular day of the experiment, and C0 represents mean tumor volume of the same group on the first day of treatment.
(§7) Tumor growth inhibition was calculated using the formula: [127] 100% T/C
(§8) Tumor volume (mm^3) was calculated using the ellipsoid formula: (D×(d^2))/2 • where ‘D’ represents the large diameter of the tumor, and ‘d’ represents the small diameter. In some cases, tumor regression and/or percentage change in tumor volume was calculated using the formula: ((T−T0)/T0)×100 • where ‘T’ represents mean tumor volume of the treated group at a particular day, and ‘T0’ represents mean tumor volume of the same treated group at the start of treatment.

H460a NSCLC xenograft = assay: Tumor growth inhibition in H460a NSCLC xenograft model; assay type: in vivo, athymic nude mice
Method: (§9) Mice were implanted with H460a NSCLC cells. […] Tumor size was measured 3 times per week. Values are means, n=10.
as §9, §2, §3, §4, §5, §6, §7, §8

[3] = Chronic-dose plasma and tumor concentrations of erlotinib in tumor-bearing mice; assay type: in vivo, nu/nu athymic mice; conditions: for concentration at 1 h / concentration at 6 h: nu/nu athymic, mouse; for concentration at 1 h: 1 hour post dose; for concentration at 6 h: 6 hours post dose
Method: On day 28 post tumor implant, blood (from the retro-orbital sinus) and tumor samples were collected at 1 and 6 hours post dosing. […] Values are means±SD, n=3.
as §1

NSCLC = conditions: single agent, stage 1V patients; cited from earlier work
[4] = plasma, oral 6.3-150.0 mg/kg daily, highest value, read-out: Plasma concentration
[5] = H460a tumor, oral 150 mg/kg, read-out: Mean tumor concentration

C#Cc1cccc(Nc2ncnc3cc(OCCOC)c(OCCOC)cc23)c1 [erlotinib, [6,7-bis(2-methoxyethoxy)-4-quinazolin-4-yl]-(3-ethynylphenyl) amine]
Dose proportionality of exposure (AUC) ([1]; 20 vs 100 mg/kg single dose): dose-proportional
MRT ([1]; female, nu/nu athymic, mouse, plasma, po, single 20 and 100 mg/kg by gavage, read-out: Average mean residence time): ~7 h
half-life ([1]; female, nu/nu athymic, mouse, plasma, po, single 20 and 100 mg/kg by gavage, read-out: Mean apparent terminal half-life (converted)): ~4 h
AUC(0-t) ([1]; female, nu/nu athymic, mouse, po, single 20 mg/kg by gavage, plasma): 33.5 µg·h/mL
AUC(0-t) ([1]; female, nu/nu athymic, mouse, po, single 100 mg/kg by gavage, plasma): ~196 µg·h/mL
Mean maximum plasma concentration ([1]; single 20 mg/kg by gavage): ~9,100 ng/mL
Mean maximum plasma concentration ([1]; single 100 mg/kg by gavage): approximately 24,000 ng/mL
Time of maximum plasma concentration ([1]; single 20 and 100 mg/kg by gavage): 0.5-1.0 hours post dose
Tolerability (in vivo; 150 mg/kg for 3 weeks, previous efficacy studies (unpublished)): well tolerated
Toxicity outcome (in vivo; 200 mg/kg group): marked weight loss
Toxicity outcome (in vivo; 400 mg/kg group): One mouse in the 400 mg/kg group died
MTD at 14 days (in vivo; oral daily, 14 days): 100 mg/kg
Ki-67 proliferative index (NSCLC xenograft tumor; erlotinib 100 mg/kg, both NSCLC xenograft tumor models): mild decrease
Angiogenesis as microvascular density (MVD), CD31 staining (NSCLC xenograft tumor; erlotinib monotherapy): no clear effect
Frequency of apoptosis in tumor cells (NSCLC xenograft tumor; erlotinib monotherapy, treated xenografts): no significant difference
Skin lesion histology ([2]; erlotinib 100 mg/kg/day for 21 days): diffuse, mild to moderate epidermal acanthosis, epidermal hyperkeratosis, focal escharosis, and infiltration of mostly acute inflammatory cells in the dermis
Changes in haematology or clinical chemistry parameters ([2]; erlotinib monotherapy): no changes
Treatment-related macroscopic changes in the skin ([2]; erlotinib monotherapy): substantial reddening and crusting of the skin of the muzzle
Tumor growth inhibition (A549 NSCLC xenograft; erlotinib 25 mg/kg alone, day 47): 48%
Extent of partial regression (A549 NSCLC xenograft; erlotinib 100 mg/kg alone): 16% and 7%
Number of partial regressions (A549 NSCLC xenograft; erlotinib 100 mg/kg alone): two
Tumor growth inhibition (A549 NSCLC xenograft; erlotinib 100 mg/kg alone, day 47 post tumor implantation (treatment day 19)): 87%
Tumor growth inhibition (H460a NSCLC xenograft; dose response study, 6.25 mg/kg oral daily, day 28): 28%
Tumor growth inhibition (H460a NSCLC xenograft; dose response study, 12.5 mg/kg oral daily, day 28): 36%
Tumor growth inhibition (H460a NSCLC xenograft; dose response study, 25 mg/kg oral daily, day 28): 46%
Tumor growth inhibition (H460a NSCLC xenograft; dose response study, 100 mg/kg oral daily, day 28 post tumor implantation): 61%
Tumor regressions (H460a NSCLC xenograft; dose response study, all dose groups): no partial or complete regressions
Dose proportionality of exposure ([3]; ascending oral doses 6.3-150.0 mg/kg, tumor-bearing mice): more than dose-proportional
concentration at 1 h [3, 4]: ≤ 16700 ng/mL
concentration at 6 h [3, 4]: ≤ 8870 ng/mL
concentration at 1 h [3, 5]: 4800 ng/g
concentration at 6 h [3, 5]: 3090 ng/g

Nc1ccn([C@@H]2O[C@H](CO)[C@@H](O)C2(F)F)c(=O)n1 [gemcitabine]
MTD at 14 days (in vivo; every 3 days): 120 mg/kg
Tumor growth inhibition (A549 NSCLC xenograft; gemcitabine 30 mg/kg alone, day 47): 42%
Extent of partial regression (A549 NSCLC xenograft; gemcitabine 120 mg/kg alone): 5%
Number of partial regressions (A549 NSCLC xenograft; gemcitabine 120 mg/kg alone): one
Tumor growth inhibition (A549 NSCLC xenograft; gemcitabine 120 mg/kg alone, day 47): 75%
Tumor growth inhibition (H460a NSCLC xenograft; combination study, gemcitabine 30 mg/kg i.p. every 3 days alone): 64%
Tumor growth inhibition (H460a NSCLC xenograft; combination study, gemcitabine 120 mg/kg i.p. every 3 days alone): 93%

CC(=O)O[C@H]1C(=O)[C@@]2(C)[C@H]([C@H](OC(=O)c3ccccc3)[C@]3(O)C[C@H](OC(=O)[C@H](O)[C@@H](NC(=O)c4ccccc4)c4ccccc4)C(C)=C1C3(C)C)[C@]1(OC(C)=O)CO[C@@H]1C[C@@H]2O [paclitaxel]
Response rate (NSCLC): 21% to 24%
